System: Myzus persicae
Test: JA or MeJA seed treatment, tomato plants challenged with aphids
Type: in vivo
Settings: tomato cv. Carousel; seed treatment 3.0 mM MeJA; challenged 10 weeks after seed treatment; 12 days feeding
Method: Tomato, pepper, maize and wheat seeds were treated with 3 mM JA or 1.5 mM JA solutions or with 3 mM methyl jasmonate (MeJA) or with deionised water containing 42.8 mM ethanol (control) by full submersion of up to 40 seeds in a Petri dish of solution wrapped in foil for a period of 24 hours at 4° C. in a fridge. A temperature of 4° C. was used both to prevent degradation of the jasmonic acid solutions and to prevent germination of the seeds. The seeds were then removed from the treatment solution and washed in 1 liter of deionised water for 5 minutes to remove the JA or MeJA coating the outside of the seeds. Tomato seeds were sown in rockwool blocks and grown on peat-based compost in glass houses at 12° C.-28° C. under artificial light on a 16 hour light and 8 hour dark cycle for 48, 56 or 70 days. Tomato plants were then challenged with Tetranychus urticae (two-spotted spider mite) which were allowed to feed for 9 days, Manduca sexta (tobacco hornworm) caterpillars which were allowed to feed for 4 days or Myzus persicae (aphid), which were allowed to feed for 10 or 12 days. In each case these organisms were restricted to the plant on which they had originally been placed. Pepper plants were challenged with Myzus persicae (aphid), which were allowed to feed for 2 weeks. Maize and wheat plants were challenged with Spodoptera […] caterpillars which were allowed to feed for 2 days (maize) or 3 days (wheat). The effect of Myzus persicae on plants was determined by counting the aphid population on each plant under a dissecting microscope at ×10 magnification. Seeds of a UK commercial F1 hybrid tomato variety (cv. Carousel) were treated with 3.0 mM jasmonic acid (JA) and 42.8 mM ethanol in deionised H2O for a period of 24 hours at 4° C. in the dark. […] Aphids were allowed to feed on the plants for twelve days and the aphid population was measured at intervals over this period. […]

## CC/C=C\CC1C(=O)CCC1CC(=O)OC (stereo not shown) [MeJA, jasmonic acid methyl ester]
  Aphid population compared with control plants: significant (p<0.05) reduction

— patent US8507756B2, “Plant protection” (Plant Bioscience Limited, priority 2007, dated 2013)
